Molecular target: T1, GSK-3β (Homo sapiens, UniProt P49841)
T1 construct: gene GSK3B
Test: caliper mobility shift kinase assay with peptide FAM-P15 and ATP
Assay type: biochemical

T1 sequence (P49841 whole entry): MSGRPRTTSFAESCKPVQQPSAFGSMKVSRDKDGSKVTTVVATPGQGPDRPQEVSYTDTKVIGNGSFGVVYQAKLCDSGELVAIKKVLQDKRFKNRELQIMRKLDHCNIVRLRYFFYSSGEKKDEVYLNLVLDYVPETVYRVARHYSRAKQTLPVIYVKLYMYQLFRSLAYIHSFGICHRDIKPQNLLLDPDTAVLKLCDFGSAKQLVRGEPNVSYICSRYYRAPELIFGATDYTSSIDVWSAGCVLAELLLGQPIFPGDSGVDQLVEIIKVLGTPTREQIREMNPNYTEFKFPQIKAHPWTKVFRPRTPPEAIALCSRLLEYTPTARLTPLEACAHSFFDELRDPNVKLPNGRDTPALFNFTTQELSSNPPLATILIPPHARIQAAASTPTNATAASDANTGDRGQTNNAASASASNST

Oc1cc(-c2c[nH]c3ncc(-c4ccc(CNc5ccncc5)cc4)cc23)cc2cccnc12 [B10, 6-(5-(4-((pyridin-4-ylamino)methyl)phenyl)-1H-pyrrolo[2,3-b]pyridin-3-yl)quinolin-8-ol]
IC50: 66 ± 2.5 nM

Source: article PMC7140427, “A Unique GSK-3β inhibitor B10 Has a Direct Effect on Aβ, Targets Tau and Metal Dyshomeostasis, and Promotes Neuronal Neurite Outgrowth” (Cells, 2020)
